Results taken from patent publication US20030153622A1, “Ophthalmic solution and contact lens solution” (MENICON CO., LTD., priority 2001, published 2003).

Assay: Characteristics of Component B (isoelectric point; pH and osmotic pressure in 0.1 mol/L aqueous solution)
Type: physicochemical
Details: for Isoelectric point: Component B; for Osmotic pressure / pH: Component B in 0.1 mol/L aqueous solution
Description: As the Component A, polyhexamethylene biguamide (PHMB) was used. As the Component B (tonicity adjusting agent), different kinds of the amino-acid-based components having different isoelectric points as indicated in the following TABLE 2 were used. […] As the chelating agent, disodium salt of ethylenediamine tetraacetic acid (EDTA·2Na) was used.

Row | Isoelectric point | Osmotic pressure [mOsm/kg] | pH | SMILES
1 | 6.00 | 104 | 6.05 | CC(N)C(=O)O (racemic) [DL-alanine]
2 | 5.07 | 102 | 5.86 | N[C@@H](CS)C(=O)O [L-cysteine]
3 | 5.48 | 105 | 6.14 | N[C@@H](Cc1ccccc1)C(=O)O [L-phenylalanine]
4 | 5.68 | 105 | 6.12 | N[C@@H](CO)C(=O)O [L-serine]
5 | 6.16 | 102 | 5.88 | C[C@@H](O)[C@H](N)C(=O)O [L-threonine]
6 | 5.96 | 103 | 7.83 | CC(C)[C@H](N)C(=O)O [L-valine]
7 | 7.30 | 107 | 5.96 | NCCCC(=O)O [γ-aminobutyric acid]
8 | 7.60 | 106 | 7.54 | NCCCCCC(=O)O [ε-aminocaproic acid]

The remaining lines, values behind:

Row | SMILES | Isoelectric point | Osmotic pressure [mOsm/kg] | pH
9 | Cl.N[C@@H](Cc1c[nH]cn1)C(=O)O [L-histidine hydrochloride] | 7.59 | 105 | 5.80
10 | O=C(O)[C@@H]1C[C@@H](O)CN1 [L-oxyproline] | 5.83 | 105 | 5.87
11 | O=C(O)[C@@H]1CCCN1 [L-proline] | 6.30 | 104 | 5.90
12 | Cl.N=C(N)NCCC[C@H](N)C(=O)O [arginine hydrochloride] | 10.76 | 181 | 5.62
13 | N=C(N)NCCC[C@H](N)C(=O)O [arginine] | 10.76 | 100 | 11.20
14 | Cl.NCCCC[C@H](N)C(=O)O [lysine hydrochloride] | 9.74 | 105 | 5.91
15 | NCCS(=O)(=O)O [taurine] | 4.50 | 106 | 5.19
